According to ChEMBL document CHEMBL1201861, “Genomics of Drug Sensitity in Cancer screening data, Wellcome Trust Sanger Institute”:

What was measured:
NCI-H1563 = test: cells; assay type: functional, cell-based, Homo sapiens
Description: SANGER: Inhibition of human NCI-H1563 cell growth in a cell viability assay.

IGR-1 = test: cells; assay type: functional, cell-based, Homo sapiens
Description: SANGER: Inhibition of human IGR-1 cell growth in a cell viability assay.

SNU-387 = test: cells; assay type: functional, cell-based, Homo sapiens
Description: SANGER: Inhibition of human SNU-387 cell growth in a cell viability assay.

BXPC-3 = test: cells; assay type: functional, cell-based, Homo sapiens
Description: SANGER: Inhibition of human BxPC-3 cell growth in a cell viability assay.

COLO-680N = test: cells; assay type: functional, cell-based, Homo sapiens
Description: SANGER: Inhibition of human COLO-680N cell growth in a cell viability assay.

HN = test: cells; assay type: functional, cell-based, Homo sapiens
Description: SANGER: Inhibition of human HN cell growth in a cell viability assay.

HT-1080 = test: cells; assay type: functional, cell-based, Homo sapiens
Description: SANGER: Inhibition of human HT-1080 cell growth in a cell viability assay.

MEL-HO = test: cells; assay type: functional, cell-based, Homo sapiens
Description: SANGER: Inhibition of human MEL-HO cell growth in a cell viability assay.

SW1463 = test: cells; assay type: functional, cell-based, Homo sapiens
Description: SANGER: Inhibition of human SW1463 cell growth in a cell viability assay.

EB2 = test: cells; assay type: functional, cell-based, Homo sapiens
Description: SANGER: Inhibition of human EB2 cell growth in a cell viability assay.

OVCAR-3 = test: cells; assay type: functional, cell-based, Homo sapiens
Description: SANGER: Inhibition of human OVCAR-3 cell growth in a cell viability assay.

IMR-5 = test: cells; assay type: functional, cell-based, Homo sapiens
Description: SANGER: Inhibition of human IMR-5 cell growth in a cell viability assay.

HCC1419 = test: cells; assay type: functional, cell-based, Homo sapiens
Description: SANGER: Inhibition of human HCC1419 cell growth in a cell viability assay.

BL-70 = test: SANGER: Inhibition of human BL-70 cell growth in a cell viability assay.; assay type: functional, cell-based
CAL-54 = test: cells; assay type: functional, cell-based, Homo sapiens
Description: SANGER: Inhibition of human CAL-54 cell growth in a cell viability assay.

SUP-T1 = test: cells; assay type: functional, cell-based, Homo sapiens
Description: SANGER: Inhibition of human SUP-T1 cell growth in a cell viability assay.

NCI-H596 = test: cells; assay type: functional, cell-based, Homo sapiens
Description: SANGER: Inhibition of human NCI-H596 cell growth in a cell viability assay.

PC-3 = test: cells; assay type: functional, cell-based, Homo sapiens
Description: SANGER: Inhibition of human PC-3 cell growth in a cell viability assay.

VM-CUB-1 = test: cells; assay type: functional, cell-based, Homo sapiens
Description: SANGER: Inhibition of human VM-CUB-1 cell growth in a cell viability assay.

NCI-H2052 = test: cells; assay type: functional, cell-based, Homo sapiens
Description: SANGER: Inhibition of human NCI-H2052 cell growth in a cell viability assay.

NCI-H28 = test: cells; assay type: functional, cell-based, Homo sapiens
Description: SANGER: Inhibition of human NCI-H28 cell growth in a cell viability assay.

DG-75 = test: cells; assay type: functional, cell-based, Homo sapiens
Description: SANGER: Inhibition of human DG-75 cell growth in a cell viability assay.

NCI-H1963 = test: cells; assay type: functional, cell-based, Homo sapiens
Description: SANGER: Inhibition of human NCI-H1963 cell growth in a cell viability assay.

GP5d = test: cells; assay type: functional, cell-based, Homo sapiens
Description: SANGER: Inhibition of human GP5d cell growth in a cell viability assay.

GMS-10 = test: cells; assay type: functional, cell-based, Homo sapiens
Description: SANGER: Inhibition of human GMS-10 cell growth in a cell viability assay.

CAL-148 = test: cells; assay type: functional, cell-based, Homo sapiens
Description: SANGER: Inhibition of human CAL-148 cell growth in a cell viability assay.

BCPAP = test: cells; assay type: functional, cell-based, Homo sapiens
Description: SANGER: Inhibition of human BCPAP cell growth in a cell viability assay.

LU-165 = test: cells; assay type: functional, cell-based, Homo sapiens
Description: SANGER: Inhibition of human LU-165 cell growth in a cell viability assay.

SCLC-21H = test: cells; assay type: functional, cell-based, Homo sapiens
Description: SANGER: Inhibition of human SCLC-21H cell growth in a cell viability assay.

CAL-85-1 = test: cells; assay type: functional, cell-based, Homo sapiens
Description: SANGER: Inhibition of human CAL-85-1 cell growth in a cell viability assay.

COR-L279 = test: SANGER: Inhibition of human COR-L279 cell growth in a cell viability assay.; assay type: functional, cell-based
NCI-H2081 = test: cells; assay type: functional, cell-based, Homo sapiens
Description: SANGER: Inhibition of human NCI-H2081 cell growth in a cell viability assay.

CAKI-1 = test: cells; assay type: functional, cell-based, Homo sapiens
Description: SANGER: Inhibition of human CAKI-1 cell growth in a cell viability assay.

RVH-421 = test: cells; assay type: functional, cell-based, Homo sapiens
Description: SANGER: Inhibition of human RVH-421 cell growth in a cell viability assay.

M059J = test: cells; assay type: functional, cell-based, Homo sapiens
Description: SANGER: Inhibition of human M059J cell growth in a cell viability assay.

LB647-SCLC = test: cells; assay type: functional, cell-based, Homo sapiens
Description: SANGER: Inhibition of human LB647-SCLC cell growth in a cell viability assay.

SK-LU-1 = test: cells; assay type: functional, cell-based, Homo sapiens
Description: SANGER: Inhibition of human SK-LU-1 cell growth in a cell viability assay.

MONO-MAC-6 = test: cells; assay type: functional, cell-based, Homo sapiens
Description: SANGER: Inhibition of human MONO-MAC-6 cell growth in a cell viability assay.

HO-1-N-1 = test: cells; assay type: functional, cell-based, Homo sapiens
Description: SANGER: Inhibition of human HO-1-N-1 cell growth in a cell viability assay.

GAMG = test: cells; assay type: functional, cell-based, Homo sapiens
Description: SANGER: Inhibition of human GAMG cell growth in a cell viability assay.

RO82-W-1 = test: cells; assay type: functional, cell-based, Homo sapiens
Description: SANGER: Inhibition of human RO82-W-1 cell growth in a cell viability assay.

NCI-H2171 = test: cells; assay type: functional, cell-based, Homo sapiens
Description: SANGER: Inhibition of human NCI-H2171 cell growth in a cell viability assay.

KYSE-510 = test: cells; assay type: functional, cell-based, Homo sapiens
Description: SANGER: Inhibition of human KYSE-510 cell growth in a cell viability assay.

HuP-T3 = test: cells; assay type: functional, cell-based, Homo sapiens
Description: SANGER: Inhibition of human HuP-T3 cell growth in a cell viability assay.

## BLEOMYCIN
NCI-H1563; nci-h1563
  IC50: 20.6 µM
IGR-1; igr-1
  IC50: 2.35 µM
SNU-387; snu-387
  IC50: 0.925 µM
BXPC-3; bxpc-3
  IC50: 3.81 µM
COLO-680N; colo-680n
  IC50: 5.76 µM
HN; hn
  IC50: 29.1 µM
HT-1080; ht-1080
  IC50: 0.234 µM
MEL-HO; mel-ho
  IC50: 0.85 µM
SW1463; sw1463
  IC50: 23.4 µM
EB2; eb2
  IC50: 0.691 µM
OVCAR-3; ovcar-3
  IC50: 123 µM
IMR-5; imr-5
  IC50: 0.137 µM
HCC1419; hcc1419
  IC50: 253 µM
BL-70; bl-70
  IC50: 1650 µM
CAL-54; cal-54
  IC50: 0.191 µM
SUP-T1; sup-t1
  IC50: 0.000251 µM
NCI-H596; nci-h596
  IC50: 13.6 µM
PC-3; pc-3
  IC50: 13.3 µM
VM-CUB-1; vm-cub-1
  IC50: 4.92 µM
NCI-H2052; nci-h2052
  IC50: 2.97 µM
NCI-H28; nci-h28
  IC50: 2.74 µM
DG-75; dg-75
  IC50: 16.9 µM
NCI-H1963; nci-h1963
  IC50: 193 µM
GP5d; gp5d
  IC50: 15.6 µM
GMS-10; gms-10
  IC50: 2110 µM
CAL-148; cal-148
  IC50: 4.6 µM
BCPAP; bcpap
  IC50: 1.44 µM
LU-165; lu-165
  IC50: 41.8 µM
SCLC-21H; sclc-21h
  IC50: 577 µM
CAL-85-1; cal-85-1
  IC50: 0.000178 µM
COR-L279; cor-l279
  IC50: 25.4 µM
NCI-H2081; nci-h2081
  IC50: 221 µM
CAKI-1; caki-1
  IC50: 0.62 µM
RVH-421; rvh-421
  IC50: 2.57 µM
M059J; m059j
  IC50: 3.77 µM
LB647-SCLC; lb647-sclc
  IC50: 3.14 µM
SK-LU-1; sk-lu-1
  IC50: 0.999 µM
MONO-MAC-6; mono-mac-6
  IC50: 4.59 µM
HO-1-N-1; ho-1-n-1
  IC50: 4.42 µM
GAMG; gamg
  IC50: 0.289 µM
RO82-W-1; ro82-w-1
  IC50: 339 µM
NCI-H2171; nci-h2171
  IC50: 1420 µM
KYSE-510; kyse-510
  IC50: 1.86 µM
HuP-T3; hup-t3
  IC50: 4.79 µM

## O=C(O)c1ccc(-c2c[nH]c3ncc(-c4ccccc4)cc23)cc1C1CCCC1 [GSK-650394]
NCI-H1563; Homo sapiens, NCI-H1563
  IC50: > 16 µM
IGR-1; Homo sapiens, IGR-1
  IC50: 4.23 µM
SNU-387; Homo sapiens, SNU-387
  IC50: > 16 µM
BXPC-3; Homo sapiens, BXPC-3
  IC50: > 16 µM
COLO-680N; Homo sapiens, COLO-680N
  IC50: > 16 µM
HN; Homo sapiens, HN
  IC50: > 16 µM
HT-1080; Homo sapiens, HT-1080
  IC50: 5.49 µM
MEL-HO; Homo sapiens, MEL-HO
  IC50: > 16 µM
SW1463; Homo sapiens, SW1463
  IC50: > 16 µM
EB2; Homo sapiens, EB2
  IC50: > 16 µM
OVCAR-3; Homo sapiens, OVCAR-3
  IC50: > 16 µM
IMR-5; Homo sapiens, IMR-5
  IC50: 9.19 µM
HCC1419; Homo sapiens, HCC1419
  IC50: > 16 µM
BL-70; Homo sapiens, BL-70
  IC50: > 16 µM
CAL-54; Homo sapiens, CAL-54
  IC50: > 16 µM
SUP-T1; Homo sapiens, SUP-T1
  IC50: > 16 µM
NCI-H596; Homo sapiens, NCI-H596
  IC50: > 16 µM
PC-3; Homo sapiens, PC-3
  IC50: > 16 µM
VM-CUB-1; Homo sapiens, VM-CUB-1
  IC50: > 16 µM
NCI-H2052; Homo sapiens, NCI-H2052
  IC50: > 16 µM
NCI-H28; Homo sapiens, NCI-H28
  IC50: > 16 µM
DG-75; Homo sapiens, DG-75
  IC50: > 16 µM
NCI-H1963; Homo sapiens, NCI-H1963
  IC50: > 16 µM
GP5d; Homo sapiens, GP5d
  IC50: > 16 µM
GMS-10; Homo sapiens, GMS-10
  IC50: > 16 µM
CAL-148; Homo sapiens, CAL-148
  IC50: > 16 µM
BCPAP; Homo sapiens, BCPAP
  IC50: 13 µM
LU-165; Homo sapiens, LU-165
  IC50: > 16 µM
SCLC-21H; Homo sapiens, SCLC-21H
  IC50: > 16 µM
CAL-85-1; Homo sapiens, CAL-85-1
  IC50: > 16 µM
COR-L279; Homo sapiens, COR-L279
  IC50: > 16 µM
NCI-H2081; Homo sapiens, NCI-H2081
  IC50: > 16 µM
CAKI-1; Homo sapiens, CAKI-1
  IC50: > 16 µM
RVH-421; Homo sapiens, RVH-421
  IC50: > 16 µM
M059J; Homo sapiens, M059J
  IC50: > 16 µM
LB647-SCLC; Homo sapiens, LB647-SCLC
  IC50: 7.93 µM
SK-LU-1; Homo sapiens, SK-LU-1
  IC50: 3.97 µM
MONO-MAC-6; Homo sapiens, MONO-MAC-6
  IC50: 1.18 µM
HO-1-N-1; Homo sapiens, HO-1-N-1
  IC50: > 16 µM
GAMG; Homo sapiens, GAMG
  IC50: 3.9 µM
RO82-W-1; Homo sapiens, RO82-W-1
  IC50: > 16 µM
NCI-H2171; Homo sapiens, NCI-H2171
  IC50: > 16 µM
KYSE-510; Homo sapiens, KYSE-510
  IC50: 2.13 µM
HuP-T3; Homo sapiens, HuP-T3
  IC50: > 16 µM

## Nc1ccn([C@@H]2O[C@H](CO)[C@@H](O)C2(F)F)c(=O)n1 [GEMCITABINE]
NCI-H1563; Homo sapiens, NCI-H1563
  IC50: > 1.02 µM
IGR-1; Homo sapiens, IGR-1
  IC50: 0.0144 µM
SNU-387; Homo sapiens, SNU-387
  IC50: 0.827 µM
BXPC-3; Homo sapiens, BXPC-3
  IC50: 0.0369 µM
COLO-680N; Homo sapiens, COLO-680N
  IC50: 0.0755 µM
HN; Homo sapiens, HN
  IC50: 0.0541 µM
HT-1080; Homo sapiens, HT-1080
  IC50: 0.00583 µM
MEL-HO; Homo sapiens, MEL-HO
  IC50: 0.00516 µM
SW1463; Homo sapiens, SW1463
  IC50: 0.51 µM
EB2; Homo sapiens, EB2
  IC50: 0.00201 µM
OVCAR-3; Homo sapiens, OVCAR-3
  IC50: > 1.02 µM
IMR-5; Homo sapiens, IMR-5
  IC50: 0.083 µM
HCC1419; Homo sapiens, HCC1419
  IC50: > 1.02 µM
BL-70; Homo sapiens, BL-70
  IC50: 0.111 µM
CAL-54; Homo sapiens, CAL-54
  IC50: 0.298 µM
SUP-T1; Homo sapiens, SUP-T1
  IC50: 0.0235 µM
NCI-H596; Homo sapiens, NCI-H596
  IC50: 0.225 µM
PC-3; Homo sapiens, PC-3
  IC50: > 1.02 µM
VM-CUB-1; Homo sapiens, VM-CUB-1
  IC50: 0.0347 µM
NCI-H2052; Homo sapiens, NCI-H2052
  IC50: 0.145 µM
NCI-H28; Homo sapiens, NCI-H28
  IC50: > 1.02 µM
DG-75; Homo sapiens, DG-75
  IC50: > 1.02 µM
NCI-H1963; Homo sapiens, NCI-H1963
  IC50: > 1.02 µM
GP5d; Homo sapiens, GP5d
  IC50: 0.0287 µM
GMS-10; Homo sapiens, GMS-10
  IC50: > 1.02 µM
CAL-148; Homo sapiens, CAL-148
  IC50: 0.0172 µM
BCPAP; Homo sapiens, BCPAP
  IC50: 0.00145 µM
LU-165; Homo sapiens, LU-165
  IC50: > 1.02 µM
SCLC-21H; Homo sapiens, SCLC-21H
  IC50: > 1.02 µM
CAL-85-1; Homo sapiens, CAL-85-1
  IC50: 0.145 µM
COR-L279; Homo sapiens, COR-L279
  IC50: 0.0539 µM
NCI-H2081; Homo sapiens, NCI-H2081
  IC50: 0.311 µM
CAKI-1; Homo sapiens, CAKI-1
  IC50: > 1.02 µM
RVH-421; Homo sapiens, RVH-421
  IC50: > 1.02 µM
M059J; Homo sapiens, M059J
  IC50: 0.0211 µM
LB647-SCLC; Homo sapiens, LB647-SCLC
  IC50: 0.00118 µM
SK-LU-1; Homo sapiens, SK-LU-1
  IC50: < 0.004 µM
MONO-MAC-6; Homo sapiens, MONO-MAC-6
  IC50: 0.0248 µM
HO-1-N-1; Homo sapiens, HO-1-N-1
  IC50: 0.0238 µM
GAMG; Homo sapiens, GAMG
  IC50: 0.00374 µM
RO82-W-1; Homo sapiens, RO82-W-1
  IC50: > 1.02 µM
NCI-H2171; Homo sapiens, NCI-H2171
  IC50: > 1.02 µM
KYSE-510; Homo sapiens, KYSE-510
  IC50: < 0.004 µM
HuP-T3; Homo sapiens, HuP-T3
  IC50: 0.146 µM
